How the values were obtained:
Type in all cases: in vivo
[1] = system: Spodoptera exigua; assay: Example 1 tomato plot trial, Spodoptera exigua (beet armyworm) control; settings: appl. A, 15 DAA
Description: Tomato—Spodoptera exigua (Beet Armyworm)
Trial conducted in 4 replicates on plots of 10 plants each. Application A was made at the occurrence of the insects.
The statistical design of this study was a completely randomized blocks design including 4 replicates. The homogeneity of variance was tested for all treatments and assessment dates by means of the Bartlett's test. In order to study the effect of the applied treatments for each assessment data, means were compared using Student-Newman-Keuls (p=0.05).

[2] = system: Leptinotarsa decemlineata; assay: Example 8 Trial 1 potato, Leptinotarsa decemlineata (Colorado potato beetle) control; settings: appl. AB, 8 DAB
Source text: Potatoes—Leptinotarsa decemlineata (Colorado Potato Beetle)—LEPTNDE
Trial 1: Potatoes, variety Lady Amarilla, 4 replicates per plot, each plot at least 25 m^2. A water volume of 200 L water/ha was used for each application. Two applications were made at a 14d interval.
Application made at the occurrence of the insects. Application A was made at Stage BBCH 36, application B was made 14 days later at Stage BBCH 51.
Insects present at the time of application: at App A 39/10 plants at App B in untreated: 35/10 plants.

[3] = system: Tomato; assay: Example 2 phytotoxicity, necrosis/burn (PHYNEC) on tomato; parameters: key: % visual leaf necrosis/discoloration vs untreated plants; settings: appl. AB
Source text: “Low Phytotoxicity” of pelargonic acid, as used herein means that the toxic effect on plants is absent or at such a level so as not to adversely impact the growth and/or yield of the plant under a given set of test conditions, e.g., at a given concentration of pelargonic acid. Phytotoxic effects may be measured in a number of different ways, for example, according to the principals set out in OEPP/EPPO Bulletin (2014) 44(3), 265-273 “PP 1/135 (4) Phytotoxicity assessment”. The phytotoxic effect on plants may be assessed visually as a function of the percentage of discoloration to the leaves and/or the appearance of necrosis. When the pelargonic acid compositions are applied to the foliage of the vegetable plants in accordance with the teachings herein, will typically result in a level of phytotoxicity of less than 20%, preferably less than 15%, more preferably less than 10% necrosis of the leaves in comparison to untreated plants. Preferred uses of the invention will typically result in phytotoxicity of 7% or less, whilst the most preferred uses will typically result in phytotoxicity of 5% or less. The above values are approximate as any purely visual assessment is likely to contain a degree of subjectivity.
(§1) Trial conducted in 4 replicates on plots of 25 plants each. Application was made at the occurrence of the insects.

[4] = system: Tuta absoluta; assay: Example 2 tomato trial, Tuta absoluta (tomato leafminer) control; settings: appl. AB
Description: Tomato—Tuta absoluta (Tomato Leafminer)
as §1
Insects present at the time of application: at App A 0.3/plot, at App B in untreated: 34/plot
Efficacy is assessed by checking on the leaves the % of damage caused by the insects.

[5] = system: Aphis fabae; assay: Example 5 pea trial, Aphis fabae (black bean aphid) control; settings: appl. AB
Description: Peas—Aphis fabae (Black bean aphid)
The trial was conducted on peas, variety Batuta, 4 replicates per plot. A water volume of 200 L water/ha was used for each application. Two applications were made, Application A was made at first infestation and Application B was made 14d later. Each plot at least 12 m^2.
Insects present at the time of application: at App A 197/20 shoots, at App B in untreated: 443/20 shoots.

CCCCCCCCC(=O)O [PA, pelargonic acid]
Damage severity (1-4), plant ([1]; 650 g/ha (1 L/ha)): 61.37 a % UNCK
Nr damaged leaves ([1]; 650 g/ha (1 L/ha)): 63.30 a % UNCK
Nr of larvae ([1]; 650 g/ha (1 L/ha)): 73.85 b % UNCK
Damage severity (1-4), plant ([1]; 1300 g/ha (2 L/ha)): 61.01 a % UNCK
Nr damaged leaves ([1]; 1300 g/ha (2 L/ha)): 71.72 a % UNCK
Nr of larvae ([1]; 1300 g/ha (2 L/ha)): 79.47 b % UNCK
Damage severity (1-4), plant ([1]; 2600 g/ha (4 L/ha)): 64.85 a % UNCK
Nr damaged leaves ([1]; 2600 g/ha (4 L/ha)): 63.54 a % UNCK
Nr of larvae ([1]; 2600 g/ha (4 L/ha)): 90.18 a % UNCK
COUINS # L1-L3/10 plants ([2]; 585 g/ha (0.9 L/ha)): 88.2 % UNCK
COUINS # L4/10 plants ([2]; 585 g/ha (0.9 L/ha)): 57.9 % UNCK
COUINS # L1-L3/10 plants ([2]; 975 g/ha (1.5 L/ha)): 17.6 % UNCK
COUINS # L4/10 plants ([2]; 975 g/ha (1.5 L/ha)): 57.9 % UNCK
COUINS # L1-L3/10 plants ([2]; 1300 g/ha (2.0 L/ha)): 82.4 % UNCK
COUINS # L4/10 plants ([2]; 1300 g/ha (2.0 L/ha)): 57.9 % UNCK
COUINS # L1-L3/10 plants ([2]; 2600 g/ha (4.0 L/ha)): 76.5 % UNCK
COUINS # L4/10 plants ([2]; 2600 g/ha (4.0 L/ha)): 68.4 % UNCK
Phytotoxicity - Necrosis/burn (PHYNEC) ([3]; 1300 g/ha (2 L/ha), 3 DAA): 0
Phytotoxicity - Necrosis/burn (PHYNEC) ([3]; 1300 g/ha (2 L/ha), 7 DAA): 0
Phytotoxicity - Necrosis/burn (PHYNEC) ([3]; 1300 g/ha (2 L/ha), 7 DAB): 0
Phytotoxicity - Necrosis/burn (PHYNEC) ([3]; 1300 g/ha (2 L/ha), 14 DAA): 0
Phytotoxicity - Necrosis/burn (PHYNEC) ([3]; 1950 g/ha (3 L/ha), 3 DAA): 0
Phytotoxicity - Necrosis/burn (PHYNEC) ([3]; 1950 g/ha (3 L/ha), 7 DAA): 0
Phytotoxicity - Necrosis/burn (PHYNEC) ([3]; 1950 g/ha (3 L/ha), 7 DAB): 0
Phytotoxicity - Necrosis/burn (PHYNEC) ([3]; 1950 g/ha (3 L/ha), 14 DAA): 0
Phytotoxicity - Necrosis/burn (PHYNEC) ([3]; 2600 g/ha (4 L/ha), 3 DAA): 0
Phytotoxicity - Necrosis/burn (PHYNEC) ([3]; 2600 g/ha (4 L/ha), 7 DAA): 0
Phytotoxicity - Necrosis/burn (PHYNEC) ([3]; 2600 g/ha (4 L/ha), 7 DAB): 0
Phytotoxicity - Necrosis/burn (PHYNEC) ([3]; 2600 g/ha (4 L/ha), 14 DAA): 0
Phytotoxicity - Necrosis/burn (PHYNEC) ([3]; 5200 g/ha (8 L/ha), 3 DAA): 0
Phytotoxicity - Necrosis/burn (PHYNEC) ([3]; 5200 g/ha (8 L/ha), 7 DAA): 0
Phytotoxicity - Necrosis/burn (PHYNEC) ([3]; 5200 g/ha (8 L/ha), 7 DAB): 0
Phytotoxicity - Necrosis/burn (PHYNEC) ([3]; 5200 g/ha (8 L/ha), 14 DAA): 0
# Damaged leaves ([4]; 1300 g/ha (2 L/ha), 3 DAA): 47 % UNCK
# Damaged leaves ([4]; 1300 g/ha (2 L/ha), 3 DAB): 31 % UNCK
# Damaged leaves ([4]; 1300 g/ha (2 L/ha), 7 DAA): 68 % UNCK
# Damaged leaves ([4]; 1300 g/ha (2 L/ha), 7 DAB): 32 % UNCK
# Damaged leaves ([4]; 1300 g/ha (2 L/ha), 14 DAA): 70 % UNCK
# Damaged leaves ([4]; 1950 g/ha (3 L/ha), 3 DAA): 51 % UNCK
# Damaged leaves ([4]; 1950 g/ha (3 L/ha), 3 DAB): 42 % UNCK
# Damaged leaves ([4]; 1950 g/ha (3 L/ha), 7 DAA): 69 % UNCK
# Damaged leaves ([4]; 1950 g/ha (3 L/ha), 7 DAB): 46 % UNCK
# Damaged leaves ([4]; 1950 g/ha (3 L/ha), 14 DAA): 72 % UNCK
# Damaged leaves ([4]; 2600 g/ha (4 L/ha), 3 DAA): 58 % UNCK
# Damaged leaves ([4]; 2600 g/ha (4 L/ha), 3 DAB): 47 % UNCK
# Damaged leaves ([4]; 2600 g/ha (4 L/ha), 7 DAA): 74 % UNCK
# Damaged leaves ([4]; 2600 g/ha (4 L/ha), 7 DAB): 42 % UNCK
# Damaged leaves ([4]; 2600 g/ha (4 L/ha), 14 DAA): 78 % UNCK
# Damaged leaves ([4]; 5200 g/ha (8 L/ha), 3 DAA): 59 % UNCK
# Damaged leaves ([4]; 5200 g/ha (8 L/ha), 3 DAB): 42 % UNCK
# Damaged leaves ([4]; 5200 g/ha (8 L/ha), 7 DAA): 75 % UNCK
# Damaged leaves ([4]; 5200 g/ha (8 L/ha), 7 DAB): 49 % UNCK
# Damaged leaves ([4]; 5200 g/ha (8 L/ha), 14 DAA): 75 % UNCK
COUINS (count of insects), 20 shoots ([5]; 585 g/ha (0.9 L/ha), 3 DAA): 7.66 % UNCK
COUINS (count of insects), 20 shoots ([5]; 585 g/ha (0.9 L/ha), 3 DAB): 32.43 % UNCK
COUINS (count of insects), 20 shoots ([5]; 585 g/ha (0.9 L/ha), 7 DAA): 17.73 % UNCK
COUINS (count of insects), 20 shoots ([5]; 585 g/ha (0.9 L/ha), 7 DAB): 33.74 % UNCK
COUINS (count of insects), 20 shoots ([5]; 975 g/ha (1.5 L/ha), 3 DAA): 9.21 % UNCK
COUINS (count of insects), 20 shoots ([5]; 975 g/ha (1.5 L/ha), 3 DAB): 39.08 % UNCK
COUINS (count of insects), 20 shoots ([5]; 975 g/ha (1.5 L/ha), 7 DAA): 22.27 % UNCK
COUINS (count of insects), 20 shoots ([5]; 975 g/ha (1.5 L/ha), 7 DAB): 51.21 % UNCK
COUINS (count of insects), 20 shoots ([5]; 1300 g/ha (2.0 L/ha), 3 DAA): 44.25 % UNCK
COUINS (count of insects), 20 shoots ([5]; 1300 g/ha (2.0 L/ha), 3 DAB): 65.79 % UNCK
COUINS (count of insects), 20 shoots ([5]; 1300 g/ha (2.0 L/ha), 7 DAA): 63.58 % UNCK
COUINS (count of insects), 20 shoots ([5]; 1300 g/ha (2.0 L/ha), 7 DAB): 65.14 % UNCK
COUINS (count of insects), 20 shoots ([5]; 2600 g/ha (4.0 L/ha), 3 DAA): 72.11 % UNCK
COUINS (count of insects), 20 shoots ([5]; 2600 g/ha (4.0 L/ha), 3 DAB): 76.77 % UNCK
COUINS (count of insects), 20 shoots ([5]; 2600 g/ha (4.0 L/ha), 7 DAA): 82.08 % UNCK
COUINS (count of insects), 20 shoots ([5]; 2600 g/ha (4.0 L/ha), 7 DAB): 76.67 % UNCK
